# Laboratory results published in patent US8883859B1, “Viral inhibitor compositions for in vivo therapeutic use comprising a combination of (-) -carvone, geraniol and a further essential oil component” (Cesa Alliance S.A., priority 2010, dated 2014).
# Tested on: Human Papilloma Virus (HPV)
# Test: Comparative tests: cervical lesions caused by HPV, 44 female patients, observation after 10 days
# Type: in vivo
# Conditions: undiluted composition
# Method: The hereunder mentioned comparative tests are aimed to establish observation(s) after 10 days on 44 female human patients by Controlled Clinical Trial on Cervical Lesions (wounds) caused by the Human Papilloma Virus (HPV) which is a double stranded DNA non enveloped virus. […] In order to establish the non-activity of possible placebo's to be used in the clinical trial, 44 HPV infected patients were treated with a one-time dose of Placebos compositions.
row,Molecule,Observation(s) after 10 days: regression of lesions on the surface of the cervix
1,"C=C(C)[C@H](CO)CC=C(C)C [Placebo 21, Lavendulol]",No regression of lesions
2,(R)-Carvone + (S)-Carvone [Placebo 3],No regression of lesions
3,"(cis+trans)-1,2-(+)-Limonene oxide [Placebo 18]",No regression of lesions

# Tested on: ES strain of lymphomatosis virus
# Test: not given
# Conditions: US 3,429,971 table 2; cited from earlier work
row,Molecule,No. cures
1,"CC(C)=CCC/C(C)=C/CO [Trans-2,6-dimethyl-2,6,octadiene-8-ol, (2E)-3,7-dimethylocta-2,6-dien-1-ol]",0

# Tested on: human DNA viruses (HSV, ADV) and RNA viruses (CVB1, EV71)
# Test: not given
# Conditions: each component used alone; cited from earlier work
row,Molecule,antiviral activity
1,CC(C)[C@]12CC(=O)[C@H](C)[C@H]1C2 [alpha-thujone],No activity
2,C=C1CC/C=C(\C)CC[C@@H]2[C@@H]1CC2(C)C [beta-caryophylene],No activity
3,C=CC(=C)CCC=C(C)C [beta-myrcene],No activity
4,C=C(C)C1CC=C(C)C(=O)C1 (stereo not shown) [carvone],No activity
5,CC12CCC(CC1)C(C)(C)O2 [cineole],No activity
6,CC(C)=CCCC(C)=CCCC(C)=CCO [farnesol],No activity
7,CC12CCC(C1)C(C)(C)C2=O (stereo not shown) [fenchone],No activity
8,CC(C)=CCC/C(C)=C/CO [geraniol],No activity

# Tested on: adenovirus type 6
# Test: not given
# Conditions: in vitro; cited from earlier work
row,Molecule,antiviral activity against adenovirus type 6
1,C=C(C)C1CC=C(C)C(=O)C1 (stereo not shown) [carvone],antiviral activity
